This note sets out measurements from patent US20220315574A1, “Beta-Arrestin-Modulating Compounds and Methods of Using Same” (Duke University, priority 2019, published 2022).

Structures can show the parent of a compound that is named as a salt.

Assay [1] relates to β2V2R-βarr internalization. In words: DiscoveRx PathHunter activated receptor endocytosis assay in U2OS cells. It counts as cell-based. The note with it: series of compound concentrations, 30 min pretreatment, isoproterenol dose-response. The procedure: β-arrestin-mediated activated receptor internalization was measure using the DiscoveRx PathHunter activated receptor endocytosis assay according to the manufacturer's protocols (DiscoverRx, Fremont, Calif.). Briefly, an Enzyme Acceptor (EA)-tagged βarr and a ProLink tag localized to endosomes are stably expressed in U2OS cells. Untagged β2V2R is transiently expressed (4 ug of DNA). The next day, cells (25,000 cells per well) were then seeded in white 96-well clear-bottomed assay plates and incubated for 24 h before experiments. On the day of experiment, cells were first treated with compound or vehicle for 30 min, followed by a series concentrations of agonist (Iso) stimulation for 60 min at 37° C. Receptor internalization was detected as luminescence resulting from the complementation of β-galactosidase fragments (Enzyme Acceptor and ProLink) within endosomes. Luminescence signals were measured on a CLARIOstar microplate reader using the PathHunter Detection kit (DiscoveRx).

A further assay has as its target ERK2-βarr2 complex (Rattus norvegicus, UniProt P29067). Nature of the assay: Pull-down of 3×Flag-ERK2 with βarr2. The note with it: series of concentrations of compound. Type of assay: binding. As for the experimental part: Given this surprising result on the ability of Cmpd-30 to activate ERK βarr1/2-dependent but receptor independent manner, next it was determined whether βarr2 and ERK2 can physically interact in the presence of Cmpd-30 by a pull-down assay. Purified 3×Flag-ERK2 was incubated with βarr2 in the presence of a series of concentrations of Cmpd-30 or vehicle.

A further assay addresses T1, βarr1 (Rattus norvegicus, UniProt P29066).
T1 construct: made in house
Nature of the assay: Binding affinity (Kd) by ITC / thermal shift. The note with it: Cmpd-30 by ITC; other three by combination of ITC and thermal shift; read-out: Kd (dissociation constant), βarr1. As for the experimental part: (§1) A high-throughput differential scanning fluorimetry-based thermal shift screen was developed to identify potential βarr small-molecule modulators present in the collection of structurally diverse, drug-like small-molecule compound library described above. The screen was performed using the StepOnePlus™ Real-Time PCR System (Applied Biosystems, Foster City, Calif.). Melting temperature changes were monitored with the use of a reporter fluorescent probe, SYPRO Orange (Thermo Fisher Scientific). Proteins were buffered in a 20 mM HEPES pH 7.5, 100 mM NaCl solution. All reactions were set up in a 96-well plate at final volumes of 20 μl. […] The temperature was raised with a step of 0.5° C. per 30 second from 25° C. to 99° C. and fluorescence readings were taken at each interval. Melting curves were directly exported from the instrument and were analyzed using Applied Biosystems® Protein Thermal Shift™ Software. Melting temperature (Tm) was calculated by plotting the first derivative of the fluorescence emission as a function of temperature [−dF/dT]. […]
(§2) ITC measurements were made using the MicroCal iTC200 system (MicroCal, Malvern, Pa.). […] Data were analyzed using MicroCal Origin software program to obtain association constant (Ka=1/Kd), stoichiometry (N), and thermodynamic parameters such as enthalpy (ΔH) and entropy (ΔS) of binding.
On the technique in general: Isothermal titration calorimetry measures the heat released or taken up as one component is titrated into another.

Another assay addresses βarr2 (Rattus norvegicus, UniProt P29067). In words: Binding affinity (Kd) by ITC / thermal shift. The arrangement: made in house. The note with it: Cmpd-30 by ITC; other three by combination of ITC and thermal shift; read-out: Kd (dissociation constant), βarr2. The procedure: as §1, with “μl. Small-molecule test compounds were plated from DMSO stock solutions into 96 well plates (1 compound/well) at a final compound concentration of 100 μM. The final DMSO concentration per well was 1%. βarr1 or βarr2 final concentration was maintained at 5 μM per well. Vehicle (DMSO), negative, and positive controls were also included in each plate. Negative controls contained SYPRO Orange in buffer by itself (no βarr protein). Three known βarr binders were individually tested under described assay conditions: ‘V2Rpp’, a phosphorylated peptide corresponding to the C-terminus of the vasopressin-2 receptor (V2R); Fab30, an antigen-binding fragment that recognizes V2Rpp bound active βarr conformation; and inositol hexakisphosphate (IP6). […].” for “μl.”
as §2

In the next assay the test system is wild-type mouse T cells. Type of assay: cell-based. The note with it: total T cells and CD4/CD8 subpopulations. As for the experimental part: Chemotaxis assays were conducted similarly to those previously described Smith, J. S. et al. C-X-C Motif Chemokine Receptor 3 Splice Variants Differentially Activate Beta-Arrestins to Regulate Downstream Signaling Pathways. Mol Pharmacol 92, 136-150, doi:10.1124/mol.117.108522 (2017)). Briefly, mouse leukocytes, obtained by passing cells isolated from the spleen and subjected to erythrocyte lysis through a 70-μm filter, were suspended in RPMI 1640 medium containing 5% FBS. For the assay, 1×10^6 cells in 100 μl of medium were added to the top chamber of a 6.5 mm diameter, 5-μm pore polycarbonate Transwell insert (Costar). Subsequently, cells were treated with βarr small-molecule modulators or vehicle for 30 min, followed by increasing concentrations of CCL19 suspended in 600 μL of the medium in the bottom chamber for 2 hours at 37° C. T cells migrated to the bottom of chamber were recovered, resuspended, washed, stained with a Live/Dead marker (Aqua Dead, ThermoFisher) and antibodies to cell surface markers (CD3, CD4, CD8, and CD45), and fixed with paraformaldehyde. The number of migrated T cells was measured by flow cytometric analysis with a BD LSRII Flow cytometer. […] A 1:10 dilution of input cells was similarly analyzed. Specific T cell migration was calculated by dividing the number of migrated cells by the number of input cells.

Sequence of βarr2 (P29067 whole entry): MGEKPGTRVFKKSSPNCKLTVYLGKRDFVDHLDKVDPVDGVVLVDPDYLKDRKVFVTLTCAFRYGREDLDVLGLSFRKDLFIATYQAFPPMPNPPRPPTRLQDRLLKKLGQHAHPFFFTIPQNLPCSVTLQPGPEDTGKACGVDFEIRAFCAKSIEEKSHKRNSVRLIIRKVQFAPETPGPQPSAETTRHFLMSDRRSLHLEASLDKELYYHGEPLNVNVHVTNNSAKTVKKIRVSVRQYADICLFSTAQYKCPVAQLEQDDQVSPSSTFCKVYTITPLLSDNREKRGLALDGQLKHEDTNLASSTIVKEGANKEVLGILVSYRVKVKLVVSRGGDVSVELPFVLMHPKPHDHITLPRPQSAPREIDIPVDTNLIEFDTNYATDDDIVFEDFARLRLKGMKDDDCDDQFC
T1 sequence (P29066 whole entry): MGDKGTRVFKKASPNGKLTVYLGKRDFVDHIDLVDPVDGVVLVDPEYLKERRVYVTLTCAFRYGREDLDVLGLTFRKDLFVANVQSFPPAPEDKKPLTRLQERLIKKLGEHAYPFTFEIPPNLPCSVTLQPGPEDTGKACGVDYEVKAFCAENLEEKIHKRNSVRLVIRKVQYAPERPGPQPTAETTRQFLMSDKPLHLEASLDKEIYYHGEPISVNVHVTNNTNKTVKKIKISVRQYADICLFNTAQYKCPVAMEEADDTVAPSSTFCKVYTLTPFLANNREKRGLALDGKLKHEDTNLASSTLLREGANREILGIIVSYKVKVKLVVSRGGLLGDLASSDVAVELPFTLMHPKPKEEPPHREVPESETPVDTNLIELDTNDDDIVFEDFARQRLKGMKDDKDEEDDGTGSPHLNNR
Sequence of ERK2-βarr2 complex (P29067 whole entry): as the sequence (P29067 whole entry) above
Sequence of ERK2-βarr2 complex (P28482 whole entry partner): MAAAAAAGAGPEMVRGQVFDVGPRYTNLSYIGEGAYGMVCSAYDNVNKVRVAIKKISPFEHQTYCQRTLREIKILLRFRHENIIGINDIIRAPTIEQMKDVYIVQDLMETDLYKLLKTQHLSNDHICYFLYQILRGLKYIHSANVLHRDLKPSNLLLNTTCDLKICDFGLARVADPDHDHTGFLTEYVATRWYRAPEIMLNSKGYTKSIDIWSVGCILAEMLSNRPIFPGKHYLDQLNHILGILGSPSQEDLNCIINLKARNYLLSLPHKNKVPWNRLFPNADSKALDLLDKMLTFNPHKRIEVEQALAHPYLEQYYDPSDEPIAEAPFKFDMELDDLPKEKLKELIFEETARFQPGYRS

A word on the Kd: it is the constant that tells how readily two partners part at equilibrium. As for `CN(C)c1n/c(=N/Cc2ccco2)ss1` [Cmpd-30, 5-(furan-2-ylmethylimino)-N,N-dimethyl-1,2,4-dithiazol-3-amine;hydrobromide], in assay [1], the “maximal agonist induced receptor-βarr internalization response” value is listed as “significantly diminished”. Besides, the ERK2-βarr2 complex formation result on ERK2-βarr2 complex is recorded as “forms a complex in vitro with βarr2 in a Cmpd-30-dependent manner”. Besides, the Kd at βarr1 was determined as 9.3 nM; at βarr2, 2 nM. The “CCL19-induced chemotaxis of T cells” value in the assay on wild-type mouse T cells was “significantly impair”.

As to `C=C1C(=O)C23[C@H](O)C1CC[C@H]2[C@]12COC3(O)[C@@H](O)[C@@H]1C(C)(C)CC[C@@H]2O` [Cmpd-5, (1R,2S,10S,11R,15S,18R)-9,10,15,18-tetrahydroxy-12,12-dimethyl-6-methylidene-17-oxapentacyclo[7.6.2.15,8.01,11.02,8]octadecan-7-one], in assay [1], the “maximal agonist induced receptor-βarr internalization response” value is “significantly diminished”. The Kd on βarr1 worked out at 233 nM; on βarr2 it was 261 nM.

Regarding `C=C1C(=O)OC2CC3(C)OC3CC/C(C)=C\C(OC(C)=O)C12` (stereo not shown) [Cmpd-64, [(8Z)-3,8-dimethyl-12-methylidene-13-oxo-4,14-dioxatricyclo[9.3.0.03,5]tetradec-8-en-10-yl] acetate], the “maximal agonist induced receptor-βarr internalization response” value in assay [1] was “significantly diminished”. On βarr2, the Kd amounted to 104 nM.
